Results published in patent US6391915B2, “Propanolamine derivatives” (Fujisawa Pharmaceutical Co., Ltd., priority 1997, dated 2002).

Columns and labels:
[1] = system: isolated rat distal colon; assay: Effect on isolated rat distal colon (spontaneous contractions, organ bath); type: cell-based; details: 0.5 h; male SD rat distal colon strip, Tyrode solution, 37° C., spontaneous contractions observed over 30 minutes
Procedure: Effect on isolated rat distal colon:
Male SD rats (180-230 g) were used. Animals were fasted for 24 hours prior to experiment. Distal colon was removed immediately after sacrifice and placed in an organ bath containing 25 ml Tyrode solution aerating with 95% O2, 5% CO2 at 37° C. The strip was mounted under 0.5 g tension and spontaneous contractions were recorded isometrically. After the mobility was of a uniform size, test compound was added to an organ bath and the contractions were observed over a 30 minutes period. Effect of test compound was calculated by comparing contractions before and after test compound.

[2] = system: isolated non-pregnant rat uterus; assay: Effect on isolated non-pregnant rat uterus (spontaneous contractions, organ bath); type: cell-based; details: 20 min; female SD rat uterus, estradiol-induced oestrus, Locke solution, 37° C., spontaneous contractions observed over 20 minutes
Procedure: Effect on isolated non-pregnant rat uterus
Female SD rats (150-180 g) were used. 48 and 24 hours prior to use, rats were given estradiol (ovahormon benzoat Trademark, Teikoku Hormone Mfg. Co., Ltd.) subcutaneously at a dose of 40 μg/rat to induce oestrus. The animals were killed and uteri were removed. Each strip was placed in an organ bath containing 25 ml Locke solution aerating with 95% O2, 5% CO2 at 37° C. under 1 g tension. Contractions were recorded isometrically. After the spontaneous contractions were of a uniform size, test compound was added to organ bath. The motility was observed over a 20 minutes period. Effect of test compound was calculated by comparing contractions before and after test compound.

melting point | IC50 [1] [nM] | IC50 [2] [nM] | Compound
166 to 174 °C |  |  | O=C([O-])COc1ccc2c(c1)CCCC(NC[C@H](O)COc1ccccc1)C2.[Na+] (stereo partly drawn) [Example 11, Sodium [6,7,8,9-tetrahydro-6-[((2S)-2-hydroxy-3-phenoxypropyl)amino]-5H-benzocyclohepten-2-yloxy]acetate]
65 °C (dec.) |  |  | O=C([O-])COc1cccc2c1CCCC(NC[C@H](O)COc1ccccc1)C2.[Na+] (stereo partly drawn) [Example 10, sodium [6,7,8,9-tetrahydro-6-[((2S)-2-hydroxy-3-phenoxypropyl)amino]-5H-benzocyclohepten-1-yloxy]acetate]
43 to 58 °C |  |  | CCOC(=O)COc1cccc2c1CCCC(NC[C@H](O)COc1ccccc1)C2.Cl (stereo partly shown)

Further lines, the compound ahead of its results:

Compound | melting point | IC50 [1] [nM] | IC50 [2] [nM]
CCOC(=O)COc1ccc2c(c1)CC(NC[C@H](O)COc1ccccc1)CCC2.Cl (stereo partly shown) | 122 to 128 °C |  | 
C=CCOc1ccccc1OCC(O)CN[C@H]1CCc2ccc(OCC(=O)OCC)cc2C1.O=C(O)C(=O)O (stereo partly shown) | 105 to 109 °C |  | 
CCOC(=O)COc1cccc2c1CCCC(N(Cc1ccccc1)C[C@H](O)COc1ccccc1)C2 (stereo partly drawn) [Example 1, (2S)-1-[N-benzyl-(1-ethoxycarbonylmethoxy-6,7,8,9-tetrahydro-5H-benzocyclohepten-6-yl)amino]-3-phenoxy-2-propanol] |  | 4.2 | 370
